“Also recorded” adds a separate entry of the source.
Legend:
cytokine production = conditions: cited from earlier work
NF-κB = conditions: cited from earlier work
PPAR gamma = target: T1, PPAR gamma (Homo sapiens, UniProt P37231); conditions: components of oxLDL; cited from earlier work
T1 sequence (P37231 1-505): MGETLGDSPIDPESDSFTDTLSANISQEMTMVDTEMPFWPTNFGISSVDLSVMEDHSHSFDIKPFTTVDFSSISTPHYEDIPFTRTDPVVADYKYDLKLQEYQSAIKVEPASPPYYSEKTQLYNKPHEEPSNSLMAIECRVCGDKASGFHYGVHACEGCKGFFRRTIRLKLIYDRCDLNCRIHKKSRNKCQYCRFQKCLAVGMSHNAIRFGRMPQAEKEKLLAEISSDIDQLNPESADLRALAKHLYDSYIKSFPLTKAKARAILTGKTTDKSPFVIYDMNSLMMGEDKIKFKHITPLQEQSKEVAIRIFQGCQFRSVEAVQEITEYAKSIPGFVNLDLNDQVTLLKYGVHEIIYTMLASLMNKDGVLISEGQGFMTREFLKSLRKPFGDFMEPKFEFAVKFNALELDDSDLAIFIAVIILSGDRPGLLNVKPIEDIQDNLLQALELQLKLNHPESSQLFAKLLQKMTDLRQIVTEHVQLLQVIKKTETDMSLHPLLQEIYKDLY

[1] = target: T2, binding between SRC-1 and PPAR gamma2 proteins (Homo sapiens, UniProt P37231); test: ELISA of binding between SRC-1 and PPAR gamma2; type: biochemical; conditions: 8 μg/ml SRC-1 coated, GST-PPAR gamma2 lysate diluted 64-fold, ligand at different concentrations, FIG. 7B
T2 construct: made in house; host or cells: E. coli (pGEX4T-1/PPARgamma2, KCTC 10190BP; pET28a/SRC-1, KCTC 10191BP)
T2 sequence (Q15788 whole entry partner, one chain of several): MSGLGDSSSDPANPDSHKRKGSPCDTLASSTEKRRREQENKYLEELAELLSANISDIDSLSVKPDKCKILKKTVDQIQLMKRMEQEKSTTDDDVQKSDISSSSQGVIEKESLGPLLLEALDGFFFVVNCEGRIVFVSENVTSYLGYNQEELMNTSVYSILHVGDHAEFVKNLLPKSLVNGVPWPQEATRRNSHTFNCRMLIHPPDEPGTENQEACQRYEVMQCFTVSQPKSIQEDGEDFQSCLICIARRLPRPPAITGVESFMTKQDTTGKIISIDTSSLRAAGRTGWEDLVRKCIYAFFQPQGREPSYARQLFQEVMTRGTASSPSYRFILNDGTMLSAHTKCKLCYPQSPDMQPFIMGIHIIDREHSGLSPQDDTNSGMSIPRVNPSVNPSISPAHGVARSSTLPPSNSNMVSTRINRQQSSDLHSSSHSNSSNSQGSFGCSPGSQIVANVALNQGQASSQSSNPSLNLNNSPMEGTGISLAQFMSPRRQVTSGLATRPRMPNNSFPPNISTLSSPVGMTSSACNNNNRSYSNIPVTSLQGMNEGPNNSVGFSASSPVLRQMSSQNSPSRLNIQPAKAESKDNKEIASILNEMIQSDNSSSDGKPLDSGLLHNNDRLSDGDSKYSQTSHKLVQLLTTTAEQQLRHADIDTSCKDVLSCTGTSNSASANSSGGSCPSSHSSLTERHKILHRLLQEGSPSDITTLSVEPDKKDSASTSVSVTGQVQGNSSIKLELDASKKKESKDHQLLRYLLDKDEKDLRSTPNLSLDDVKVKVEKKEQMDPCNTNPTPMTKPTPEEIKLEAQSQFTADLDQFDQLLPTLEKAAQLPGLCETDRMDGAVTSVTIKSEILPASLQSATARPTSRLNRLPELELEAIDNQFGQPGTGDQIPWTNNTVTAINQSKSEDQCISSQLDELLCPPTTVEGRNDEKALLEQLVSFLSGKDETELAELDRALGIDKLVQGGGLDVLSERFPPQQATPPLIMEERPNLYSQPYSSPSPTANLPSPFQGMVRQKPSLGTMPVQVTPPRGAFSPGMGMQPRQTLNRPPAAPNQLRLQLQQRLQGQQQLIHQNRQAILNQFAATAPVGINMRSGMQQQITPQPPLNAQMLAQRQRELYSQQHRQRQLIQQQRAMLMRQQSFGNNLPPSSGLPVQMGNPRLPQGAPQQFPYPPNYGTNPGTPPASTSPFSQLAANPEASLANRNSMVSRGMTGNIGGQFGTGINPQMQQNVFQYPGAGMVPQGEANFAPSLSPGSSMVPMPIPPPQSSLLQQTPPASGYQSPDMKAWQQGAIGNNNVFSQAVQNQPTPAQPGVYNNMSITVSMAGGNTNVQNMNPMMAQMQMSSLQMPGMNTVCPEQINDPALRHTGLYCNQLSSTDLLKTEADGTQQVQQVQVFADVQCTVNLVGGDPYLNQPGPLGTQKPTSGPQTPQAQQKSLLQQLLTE
Method: To examine the effect of PPAR gamma2 protein concentration on the binding between SRC-1 and PPAR gamma2 proteins, the following test was conducted. […] Also, this procedure was repeated three times, and a GST-fused protein which had not been bound to SRC-1 protein was used as a control group. […] Furthermore, to examine the effect of PPAR gamma2 ligand concentration on the binding between SRC-1 and PPAR gamma2 proteins, the following test was conducted. 8 μg/ml SRC-1 was coated on a plate, and E. coli lysate was diluted 64-fold and added to the plate. Then, indomethacin, a PPAR gamma2 ligand, was added to the plate at a different concentration.
His-SRC-1 protein was diluted with 0.1 M sodium carbonate buffer (pH 9.6) to a concentration of about 800 ng/well. 100 μl of the protein dilution was loaded into each well of an ELISA plate, and coated on the plate overnight at 4° C. The coated plate was washed three times with PBS (containing 0.05% Tween®-20), and added with 3% skimmed-PBST solution and left to stand overnight at 4° C. or for 2 hours at room temperature. A soluble fraction of GST-fused PPAR gamma2 was diluted […], and 50 μl of the dilution was added to each well of the plate. Indomethacin, a PPAR gamma2 agonist, was added at 1 μM, 10 μM and 100 μM. […]

## CCCCC/C=C/C=C1/C(=O)C=C[C@@H]1C/C=C\CCCC(=O)O [15d-PGJ2]
Cytokine production; PPAR gamma+/+, +/- or -/- embryonic stem cells
  cytokine production in embryonic stem cells: inhibited cytokine production
Cytokine production; monocytes or macrophages
  cytokine production of monocytes or macrophages in vitro: the most powerful inhibitor
NF-κB
  NF-κB activity: inhibit NF-κB activity

## CCCCCC(O)/C=C/C=C\CCCCCCCC(=O)O (stereo not drawn) [13-HODE]
PPAR gamma
  PPAR gamma agonist activity: PPAR gamma agonists

## CCCCC/C=C\C=C\C(O)CCCCCCCC(=O)O (stereo not drawn) [9-HODE]
PPAR gamma
  PPAR gamma agonist activity: PPAR gamma agonists

## COc1ccc2c(c1)c(CC(=O)O)c(C)n2C(=O)c1ccc(Cl)cc1 [indomethacin]
[1]
  binding between SRC-1 and PPAR gamma2: dependent on the concentration of indomethacin; also recorded: increased

From patent US7387895B2, “Monoclonal antibody specific for PPAR gamma, hydridoma cell line producing the same, and method for detecting regulator related to diseases, including inflammation, cancer and metabolic diseases, using the same” (Korea Research Institute of Bioscience and Biotechnology, priority 2003, dated 2008)
